Laboratory results taken from patent US20220330549A1, “USE OF N-BENZYLBENZAMIDE-BASED COMPOUND AS HERBICIDE” (Northwest A&F University, priority 2020, published 2022).

Columns and labels:
Assay type in all cases: in vivo
Barnyard grass [1] = assay: Herbicidal activity test for indoor pre-emergence soil treatment; set-up: key: level 1-9; higher = more weed remaining vs blank control; settings: 150 g a.i./ha, visual inspection 21 days after treatment
In short: (§1)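 Pre-emergence test following NY/T 1155.3-2006: weed seeds were sown in moistened neutral sandy loam (≤2% organic matter) and covered with 0.5–2.0 cm of soil. After 24 h, the soil was sprayed with a 10% EC diluted in water at 150 g(a.i.)/ha. Damage was scored visually on a 1–9 scale at 21 days.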

Piemarker [2] = assay: as above; set-up: key: level 1-9; higher = more weed remaining vs blank control; settings: 150 g a.i./ha, visual inspection 21 days after treatment
In short: as §1

green bristlegrass [3] = assay: as above; set-up: key: level 1-9; higher = more weed remaining vs blank control; settings: 150 g a.i./ha, visual inspection 21 days after treatment
In short: as §1

Amaranthus retroflexus [4] = assay: as above; set-up: key: 1-9 levels; higher = more weed remaining vs blank control; settings: 150 g a.i./ha, visual inspection 21 days after treatment
In short: as §1

Digitaria sanguinalis [5] = assay: as above; set-up: key: 1-9 levels; higher = more weed remaining vs blank control; settings: 150 g a.i./ha, visual inspection 21 days after treatment
In short: as §1

Humulus scandens [6] = assay: as above; settings: 150 g a.i./ha, visual inspection 21 days after treatment
In short: as §1

Amaranthus retroflexus [7] = assay: Herbicidal activity test for indoor post-emergence spraying on stems and leaves; set-up: key: grade level by weed remaining vs blank control, e.g. 5 = 10.1-15%; settings: 150 g a.i./ha, visual inspection 21 days after treatment
In short: (§2)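 Post-emergence stem and leaf spray in an indoor test following NY/T 1155.4-2006, with weeds sown and grown in a greenhouse. Effect scored visually 21 days after treatment as graded levels, each level set by the percentage of weed remaining relative to the blank control area.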

Barnyard grass [8] = assay: as above; set-up: key: grade level by weed remaining vs blank control, e.g. 5 = 10.1-15%; settings: 150 g a.i./ha, visual inspection 21 days after treatment
In short: as §2

Digitaria sanguinalis [9] = assay: as above; set-up: key: grade level by weed remaining vs blank control, e.g. 5 = 10.1-15%; settings: 150 g a.i./ha, visual inspection 21 days after treatment
In short: as §2

Humulus scandens [10] = assay: as above; set-up: key: grade level by weed remaining vs blank control, e.g. 5 = 10.1-15%; settings: 150 g a.i./ha, visual inspection 21 days after treatment
In short: as §2

Piemarker [11] = assay: as above; set-up: key: grade level by weed remaining vs blank control, e.g. 5 = 10.1-15%; settings: 150 g a.i./ha, visual inspection 21 days after treatment
In short: as §2

green bristlegrass [12] = assay: as above; set-up: key: grade level by weed remaining vs blank control, e.g. 5 = 10.1-15%; settings: 150 g a.i./ha, visual inspection 21 days after treatment
In short: as §2

Broadleaf weed = assay: Post-emergence herbicidal activity test in a paddy field; set-up: key: level scale; higher level = more weed left vs blank control; settings: 150 g a.i./ha (penoxsulam control 250 g(a.i.)/h)
In short: (§3)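 Efficacy was visually estimated 15 and 30 days after spraying, grading weed coverage relative to an untreated neighbouring plot (level 2 = 0 to 2.5%, level 9 = 67.6 to 100%). Treatments were 150 g(a.i.)/ha from 10% emulsifiable concentrates applied at the 4-5 leaf rice stage, four repeats of 50 m^2 each.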

Cyperaceae = assay: as above; set-up: key: level scale; higher level = more weed left vs blank control; settings: 150 g a.i./ha (penoxsulam control 250 g(a.i.)/h)
In short: as §3

Gramineae = assay: as above; set-up: key: level scale; higher level = more weed left vs blank control; settings: 150 g a.i./ha (penoxsulam control 250 g(a.i.)/h)
In short: as §3

Acalypha australis = assay: Field test for weed control in a corn field; settings: 150 g a.i./ha, after treatment
In short: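 Post-emergence field trial in a corn field following GB/T 17980.42-2000. Test compounds were formulated as 10% emulsifiable concentrates, diluted in water, and sprayed at 150 g(a.i.)/ha when corn had 2 to 5 leaves, with 4 replicates on 20 m^2 plots. Mesotrione 25% oil dispersion served as the control agent. Weed control was scored on a 1-9 scale.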

Amaranthus retroflexus [13] = assay: Field test for weed control in a corn field; settings: 150 g a.i./ha, 30 days after treatment
In short: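 Field efficacy trial in a corn field following GB/T 17980.42-2000. Test compounds were formulated as 10% emulsifiable concentrates, diluted in water and sprayed post-emergence when corn had 2 to 5 leaves. Each treatment covered 20 m^2 with 4 replicates. A 25% mesotrione oil dispersion served as control. Damage to Amaranthus retroflexus was rated on a 1-9 scale against untreated blank plots.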

Barnyard grass [14] = assay: Field test for weed control in a corn field; settings: 150 g a.i./ha, 30 days after treatment
In short: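 Corn-field efficacy trial following GB/T 17980.42-2000. Test compounds were formulated as 10% emulsifiable concentrates, diluted in water and sprayed post-emergence at 150 g(a.i.)/ha when corn had 2 to 5 leaves. Each treatment was replicated 4 times on 20 m^2 plots. Barnyard grass control was rated on a 1-9 damage scale.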

Chenopodium album = assay: Field test for weed control in a corn field; settings: 150 g a.i./ha, after treatment
In short: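 A corn-field efficacy trial following GB/T 17980.42-2000 tested post-emergence control of Chenopodium album. Test compounds formulated as 10% emulsifiable concentrates were diluted in water and sprayed at 150 g(a.i.)/ha when the corn had 2 leaves to 5 leaves, on 20 m^2 plots with 4 replicates. Herbicidal activity was rated on a 1-9 scale by damage symptoms and severity.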

Convolvulus arvensis = assay: Field test for weed control in a corn field; settings: 150 g a.i./ha, after treatment
In short: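 Field trial of weed control against Convolvulus arvensis in corn, run following GB/T 17980.42-2000. Test agents were formulated as 10% emulsifiable concentrates and sprayed in water at 150 g(a.i.)/ha when corn plants had 2 to 5 leaves. Each treatment was replicated 4 times on 20 m^2 plots, and 25% mesotrione oil dispersion served as the control agent.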

Digitaria sanguinalis [15] = assay: Field test for weed control in a corn field; settings: 150 g a.i./ha, after treatment
In short: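 Field trial in a corn field following GB/T 17980.42-2000. Test compounds were formulated as 10% emulsifiable concentrates, diluted in water and sprayed post-emergence at 150 g(a.i.)/ha when corn had 2 to 5 leaves, with 4 replicates on 20 m^2 plots. Control of Digitaria sanguinalis was scored on a 1-9 scale based on weed damage relative to the untreated blank area.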

Portulaca oleracea = assay: Field test for weed control in a corn field; settings: 150 g a.i./ha, after treatment
In short: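 Field efficacy trial in corn following GB/T 17980.42-2000. Test compounds were prepared as 10% emulsifiable concentrates, diluted in water, and sprayed at 150 g(a.i.)/ha when corn had 2 to 5 leaves after sowing. Plots were 20 m^2 with 4 replicates per treatment. Herbicidal activity was scored on a 1-9 scale from weed damage symptoms and severity.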

Solanum nigrum = assay: Field test for weed control in a corn field; settings: 150 g a.i./ha, 30 days after treatment
In short: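 Post-emergence weed control was tested in a corn field following GB/T 17980.42-2000. Compounds were made into 10% emulsifiable concentrates, diluted in water and sprayed at 150 g(a.i.)/ha when corn had 2 to 5 leaves after sowing, in 20 m^2 plots with 4 replicates. Effects on Solanum nigrum were graded on a 1-9 scale relative to the blank control area.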

goosegrass = assay: Field test for weed control in a corn field; settings: 150 g a.i./ha, after treatment
In short: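 Weed control efficacy against goosegrass was tested in a corn field following GB/T 17980.42-2000. Compounds formulated as 10% emulsifiable concentrates were diluted in water and sprayed post-emergence at 150 g(a.i.)/ha when corn had 2 to 5 leaves, with 4 replicates of 20 m^2 plots. Herbicidal activity was rated on a 1-9 scale by damage symptoms and severity.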

green bristlegrass [16] = assay: Field test for weed control in a corn field; settings: 150 g a.i./ha, after treatment
In short: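 Post-emergence weed control was tested in a corn field following GB/T 17980.42-2000. When the corn had 2 leaves to 5 leaves after sowing, 10% emulsifiable concentrates diluted in water were sprayed at 150 g(a.i.)/ha on 20 m^2 plots, four replicates per treatment. Effects on green bristlegrass were scored on a 1-9 damage scale relative to the blank control area.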

nutgrass flatsedge = assay: Field test for weed control in a corn field; settings: 150 g a.i./ha, after treatment
In short: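 A corn field efficacy trial following GB/T 17980.42-2000 assessed post-emergence control of nutgrass flatsedge. Test compounds were formulated as 10% emulsifiable concentrates, diluted in water, and sprayed at 150 g(a.i.)/ha when the corn had 2 to 5 leaves. Each treatment had 4 replicates on 20 m^2 plots. Herbicidal activity was graded on a 1-9 scale by damage symptoms and severity.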

Row | Structure (SMILES) | Herbicidal Activity Barnyard grass (Barnyard grass [1]) | Herbicidal Activity Piemarker (Piemarker [2]) | Herbicidal Activity Green bristlegrass (green bristlegrass [3]) | Herbicidal Activity Amaranthus retroflexus (Amaranthus retroflexus [4]) | Herbicidal Activity Digitaria sanguinalis (Digitaria sanguinalis [5]) | Herbicidal Activity Humulus scandens (Humulus scandens [6]) | Herbicidal Activity Amaranthus retroflexus (Amaranthus retroflexus [7]) | Herbicidal Activity Barnyard grass (Barnyard grass [8]) | Herbicidal Activity Digitaria sanguinalis (Digitaria sanguinalis [9]) | Herbicidal Activity Humulus scandens (Humulus scandens [10]) | Herbicidal Activity Piemarker (Piemarker [11]) | Herbicidal Activity Green bristlegrass (green bristlegrass [12]) | Herbicidal activity 15 days after treatment Broadleaf weed (Broadleaf weed) | Herbicidal activity 30 days after treatment Broadleaf weed (Broadleaf weed) | Herbicidal activity 15 days after treatment Cyperaceae (Cyperaceae) | Herbicidal activity 30 days after treatment Cyperaceae (Cyperaceae) | Herbicidal activity 15 days after treatment Gramineae (Gramineae) | Herbicidal activity 30 days after treatment Gramineae (Gramineae) | Post-emergence weed control effect, Acalypha australis (Acalypha australis) | Post-emergence weed control effect, Amaranthus retroflexus (Amaranthus retroflexus [13]) | further results
1 | COc1ncccc1C(=O)NCc1ccc(F)cc1 [Compound A94] | 1 | 1 | 1 | 1 | 1 | 2 (equivalent to 0 to 2.5% of the weed in the blank control area) | 1 | 1 | 1 | 1 | 1 | 1 | 1 | 1 | 1 | 2 (equivalent to 0 to 2.5% of the weed in the blank control area) | 2 (equivalent to 0 to 2.5% of the weed in the blank control area) | 2 (equivalent to 0 to 2.5% of the weed in the blank control area) | 2 (equivalent to 0 to 2.5% of the weed in the blank control area) | 1 | Post-emergence weed control effect, Barnyard grass (Barnyard grass [14]): 1; Post-emergence weed control effect, Chenopodium album (Chenopodium album): 1; Post-emergence weed control effect, Convolvulus arvensis (Convolvulus arvensis): 2 (equivalent to 0 to 2.5% of the weed in the blank control area); Post-emergence weed control effect, Digitaria sanguinalis (Digitaria sanguinalis [15]): 2 (equivalent to 0 to 2.5% of the weed in the blank control area); Post-emergence weed control effect, Portulaca oleracea (Portulaca oleracea): 1; Post-emergence weed control effect, Solanum nigrum (Solanum nigrum): 2 (equivalent to 0 to 2.5% of the weed in the blank control area); Post-emergence weed control effect, Goose grass (goosegrass): 1; Post-emergence weed control effect, Green bristlegrass (green bristlegrass [16]): 2 (equivalent to 0 to 2.5% of the weed in the blank control area); Post-emergence weed control effect, Nutgrass flatsedge (nutgrass flatsedge): 3 (equivalent to 2.6 to 5% of the weed in the blank control area)
2 | Cc1cccc(C(=O)NCc2cccc(F)c2)c1 [Compound B01] | 2 (equivalent to 0 to 2.5% of the weed in the blank control area) | 2 (equivalent to 0 to 2.5% of the weed in the blank control area) | 1 | 1 | 1 | 2 (equivalent to 0 to 2.5% of the weed in the blank control area) | 1 | 2 (equivalent to 0 to 2.5% of the weed in the blank control area) | 1 | 1 | 1 | 1 | 1 | 2 (equivalent to 0 to 2.5% of the weed in the blank control area) | 2 (equivalent to 0 to 2.5% of the weed in the blank control area) | 2 (equivalent to 0 to 2.5% of the weed in the blank control area) | 2 (equivalent to 0 to 2.5% of the weed in the blank control area) | 2 (equivalent to 0 to 2.5% of the weed in the blank control area) | 2 (equivalent to 0 to 2.5% of the weed in the blank control area) | 1 | Post-emergence weed control effect, Barnyard grass (Barnyard grass [14]): 1; Post-emergence weed control effect, Chenopodium album (Chenopodium album): 1; Post-emergence weed control effect, Convolvulus arvensis (Convolvulus arvensis): 2 (equivalent to 0 to 2.5% of the weed in the blank control area); Post-emergence weed control effect, Digitaria sanguinalis (Digitaria sanguinalis [15]): 1; Post-emergence weed control effect, Portulaca oleracea (Portulaca oleracea): 1; Post-emergence weed control effect, Solanum nigrum (Solanum nigrum): 2 (equivalent to 0 to 2.5% of the weed in the blank control area); Post-emergence weed control effect, Goose grass (goosegrass): 1; Post-emergence weed control effect, Green bristlegrass (green bristlegrass [16]): 1; Post-emergence weed control effect, Nutgrass flatsedge (nutgrass flatsedge): 2 (equivalent to 0 to 2.5% of the weed in the blank control area)
